Measured values published in patent US12398141B2 (SHANGHAI SYNERGY PHARMACEUTICAL SCIENCES CO., LTD, priority 2019, dated 2025).

Experiments:
JAK3 = JAK3 (Homo sapiens (Human), UniProt P52333); assay: JAK3 LANCE Ultra kinase assay; type: biochemical; details: 4 uM ATP
[1] = Collagen-induced rheumatoid arthritis model, clinical score; type: in vivo, mice; design: key: 0-4 per limb by redness/deformity, max 16 per animal; details: clinical score 0-16 per animal, Day 0 (before modeling)
Protocol: (§1) The effects of compounds H07, H12, H14, H25, H30, H39 and H44 on rheumatoid arthritis in […] were determined after long term administration by using Lewis male […] (Beijing Vital River Laboratory Animal Technology Co., Ltd.), aged 5-6 weeks and weighing […] as test animals. The anti-inflammatory pharmacodynamics characteristic of the compounds of the invention was discussed.
(§2) A certain amount of compounds were taken and dissolved in 4% Tween 80/0.5% hydroxy propyl methyl cellulose solution. A volume of intragastric administration of mice was 10 ml/kg.
(§3) Collagen type II was dissolved in 0.1M acetic acid and kept in a 4° C. refrigerator overnight at a collagen concentration of 4 mg/mL. Same volume of incomplete Freund adjuvant (Sigma, USA) was added in collagen before injection in test, which was emulsified high speed homogenizer (30000 rpm) to prepare a collagen emulsion. This procedure was carried out on ice.
(§4) Mice were immunologically injected with the collagen emulsion by two separate times for modeling on days 1 and 7 (the day before modeling was day 0). 0.1 ml of collagen emulsion prepared as above was injected intradermally into a root of tail at a single point, and 0.2 ml was injected intradermally into back at two points. The animals were subjected to clinical score and paw volume test from day 10 to day 14 after modeling. Animals successfully modeled (average clinical score≥3 points/animal) were assigned to each administration group, with each group included 10 animals. They were administrated intragastrically with above compounds or resolvents at a dosage of 10 mg/kg twice/day, and administrated intragastrically with methotrexate (2 mg/kg, Sigma, USA) every three days, until day 27. During the test, the […] were scored twice a week, and the paw volume and body weight were measured twice.
(§5) According to the different degrees of lesions (redness and joint deformation), the scores were ranged from 0 to 4 points, with the highest score of 4 points for each limb and 16 points for each animal. Scoring standards are as follows: 0, no redness; 1, slight redness on mid legs (tarsals) or ankles; 2, slight redness from ankles to mid legs (tarsals); 3, medium redness from ankles to tarsometatarsal joints; 4, severe redness from toes or fingers to ankles or wrist joints.

Lewis male mice = assay: as above; type: in vivo; design: key: 0-4 per limb by redness/deformity, max 16 per animal; details: clinical score 0-16 per animal, compounds 10 mg/kg twice/day, methotrexate 2 mg/kg every three days
Protocol: as §1, §2, §3, §4, §5

hERG potassium channel = hERG potassium channel (Homo sapiens (Human), UniProt Q12809); assay: hERG potassium channel current, manual patch clamp; type: cell-based; details: HEK293 cells overexpressing hERG potassium channel, whole-cell patch clamp; read-out: IC50 (μM) inhibiting hERG current
Protocol: Effects of compounds H07, H12, H14, H25, H30, H39 and H44 on hERG potassium channel were detected by applying electrophysiological manual patch clamp to study an initial cardiac safety of the compounds of the invention.
Test compounds were dissolved in dimethyl sulfoxide to prepare mother solutions (10 mM, 3.3 mM, 1.1 mM and 0.37 mM). Next an extracellular fluid was used for secondary dilution so that the test solution had final concentrations of 30 μM, 10 μM, 3.3 μM, 1.1 μM and 0.37 μM.
Extracellular fluids: 130 mM sodium chloride, 4 mM potassium chloride, 1.8 mM calcium chloride, 1 mM magnesium chloride, 10 mM glucose, 10 mM 4-hydroxyethylpiperazine ethane sulfonic acid (pH 7.4)
Intracellular fluid: 130 mM potassium chloride, 1 mM magnesium chloride, 5 mM ethylene glycol diethyl ether diamine tetraacetic acid, 5 mM triphosadenine and 10 mM 4-hydroxyethylpiperazine ethane sulfonic acid (pH7.2)
Compositions of a cell culture medium: Dulbecco's modified eagle medium (Grand Turk Island Biotechnology Company, 11330032), 15% fetal calf serum (Sigma, A15-101, USA), 1% penicillin-streptomycin (Biowest, L0022-100).
HEK293 cells overexpressing hERG potassium channel (from Dr. Mohamed Boutjdir's laboratory, School of Medicine, New York University—PharmaCore Labs, Inc.) were incubated in a medium consisting of Dulbecco's modified eagle medium/15% fetal calf serum/1% penicillin-streptomycin in a 5% CO2 incubator at 37° C. In the test, the cells were transferred to a cell bath embedded into a inverted microscope platform, and extracellular fluid was perfused. After stabilization for 5 minutes, the cells were precipitated and then the test could start. Membrane currents were recorded by using HEKA EPC-10 patch clamp amplifier and […] acquisition system (HEKA Instrument Co., Ltd., D-67466 Lambrcht, Palatinate, Germany). All tests were completed at room temperature (22-24° C.). P-97 microelectrode puller (Sutter Instrument Company, Novato, […] 94949) was used to straighten the electrodes (BF150-110-10). The inner diameter of the electrode was 1-1.5 mm, and the water resistance after internal liquid filling was 2-4 MΩ.
Tests were carried out in whole-cell recording mode, with current values recorded according to the electrophysiological stimulation protocol below. First, the membrane voltage was clamped at −80 mV, and the cells were stimulated with +20 mV for two seconds to activate hERG potassium channel, which was then repolarized to −50 mV for five seconds, producing an outward tail current with a stimulation frequency of every 15 seconds. The current value was a peak value of the tail current. In the test, the channel current was recorded in the whole-cell recording mode. First, extracellular fluid (about 2 ml per minute) was perfused and recorded continuously, and then the current was allowed to stabilize (current decay (run-down) was less than 5% within 5 minutes). At this time, the peak value of the tail current was the control current value. Subsequently, the extracellular fluid containing the drug to be tested was perfused and recorded continuously until the inhibiting effect of drug on hERG current reached a stable state, at which time the peak value of the tail current was the current value after adding drugs. After a stable situation was achieved, if hERG current recovered after perfusing and washing with extracellular fluid, perfusion could be continued to test other concentrations or drugs. The solution containing the drugs to be tested was perfused in descending order of concentration and the current values were recorded. […] V2X60 (HEKA Instrument Co., Ltd., D-67466 Lambrcht, Palatinate, Germany) was used to collect data. ORANGE 8.5 (ORANGE Laboratory Company, Northampton, UK) software was used for the analysis and statistics.

JAK3, sequence (P52333 whole entry): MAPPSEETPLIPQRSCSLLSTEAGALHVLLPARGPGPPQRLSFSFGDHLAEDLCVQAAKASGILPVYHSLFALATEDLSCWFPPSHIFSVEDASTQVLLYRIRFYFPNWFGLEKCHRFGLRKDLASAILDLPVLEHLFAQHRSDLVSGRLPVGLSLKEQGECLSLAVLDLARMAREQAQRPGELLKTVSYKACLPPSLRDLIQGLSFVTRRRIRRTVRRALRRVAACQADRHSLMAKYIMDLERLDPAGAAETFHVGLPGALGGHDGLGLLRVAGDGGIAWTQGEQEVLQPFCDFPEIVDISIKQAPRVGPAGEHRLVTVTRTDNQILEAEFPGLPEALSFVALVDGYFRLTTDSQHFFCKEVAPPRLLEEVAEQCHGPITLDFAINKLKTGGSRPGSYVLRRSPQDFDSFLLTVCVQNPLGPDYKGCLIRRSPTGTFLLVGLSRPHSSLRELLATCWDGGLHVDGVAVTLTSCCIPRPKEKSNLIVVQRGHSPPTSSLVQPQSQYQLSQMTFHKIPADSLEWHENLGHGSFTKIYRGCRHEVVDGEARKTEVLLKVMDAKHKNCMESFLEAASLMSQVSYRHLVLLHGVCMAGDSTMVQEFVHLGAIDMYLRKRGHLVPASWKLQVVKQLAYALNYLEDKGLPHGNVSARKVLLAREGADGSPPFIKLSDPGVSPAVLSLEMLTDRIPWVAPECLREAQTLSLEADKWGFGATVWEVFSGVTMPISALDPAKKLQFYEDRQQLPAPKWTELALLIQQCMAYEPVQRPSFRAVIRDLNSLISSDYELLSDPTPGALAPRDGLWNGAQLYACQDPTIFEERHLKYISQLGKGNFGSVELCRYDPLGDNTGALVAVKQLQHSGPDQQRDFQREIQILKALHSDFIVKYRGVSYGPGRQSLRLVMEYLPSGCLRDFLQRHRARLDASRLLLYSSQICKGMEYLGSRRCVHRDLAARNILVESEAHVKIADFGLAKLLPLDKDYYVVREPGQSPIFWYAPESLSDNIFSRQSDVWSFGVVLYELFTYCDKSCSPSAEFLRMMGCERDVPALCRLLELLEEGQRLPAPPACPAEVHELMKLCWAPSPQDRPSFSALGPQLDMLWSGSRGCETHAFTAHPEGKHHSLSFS
hERG potassium channel, sequence (Q12809 whole entry): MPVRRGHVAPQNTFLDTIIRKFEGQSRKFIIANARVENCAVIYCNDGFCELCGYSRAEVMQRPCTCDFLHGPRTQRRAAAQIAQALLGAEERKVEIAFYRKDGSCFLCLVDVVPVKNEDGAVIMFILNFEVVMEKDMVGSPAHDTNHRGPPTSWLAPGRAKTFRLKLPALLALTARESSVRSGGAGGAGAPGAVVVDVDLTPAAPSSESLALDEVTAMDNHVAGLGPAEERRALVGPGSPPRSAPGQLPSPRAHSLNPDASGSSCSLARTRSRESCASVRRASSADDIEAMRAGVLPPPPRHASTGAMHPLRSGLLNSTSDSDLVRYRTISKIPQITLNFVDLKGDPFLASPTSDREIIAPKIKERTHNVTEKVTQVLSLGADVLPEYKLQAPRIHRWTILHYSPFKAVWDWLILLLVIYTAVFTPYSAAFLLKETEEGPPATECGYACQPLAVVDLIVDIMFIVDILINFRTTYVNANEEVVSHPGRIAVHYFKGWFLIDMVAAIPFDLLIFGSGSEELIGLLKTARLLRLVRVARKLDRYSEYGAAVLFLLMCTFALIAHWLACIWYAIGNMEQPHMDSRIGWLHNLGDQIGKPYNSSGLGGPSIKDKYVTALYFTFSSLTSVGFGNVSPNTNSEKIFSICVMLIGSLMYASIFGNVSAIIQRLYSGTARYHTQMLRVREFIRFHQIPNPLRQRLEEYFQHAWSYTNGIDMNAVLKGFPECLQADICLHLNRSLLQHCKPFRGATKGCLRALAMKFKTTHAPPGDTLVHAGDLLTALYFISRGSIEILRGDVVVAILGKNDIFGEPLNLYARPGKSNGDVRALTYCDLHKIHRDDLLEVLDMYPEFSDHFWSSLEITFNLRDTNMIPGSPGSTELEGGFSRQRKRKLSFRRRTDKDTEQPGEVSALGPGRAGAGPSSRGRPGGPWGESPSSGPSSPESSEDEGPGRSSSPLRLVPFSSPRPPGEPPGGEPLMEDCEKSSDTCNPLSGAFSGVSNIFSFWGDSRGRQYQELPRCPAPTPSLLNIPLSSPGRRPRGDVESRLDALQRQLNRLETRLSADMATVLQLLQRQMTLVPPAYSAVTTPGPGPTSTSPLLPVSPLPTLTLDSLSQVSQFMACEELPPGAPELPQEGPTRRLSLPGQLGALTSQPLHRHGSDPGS

IC50 (JAK3): 76 nM
SMILES: CC(C)c1nsc(NC(=O)N2C[C@H]3C[C@H](N(C)c4c(C#N)cnc5[nH]ccc45)C[C@H]3C2)n1 [Compound H30, (3aR,5s,6aS)-4-({2-[(3-isopropyl-1,2,4-thiadiazole-5-yl)carbamoyl]-hexahydrocyclopenta[c]pyrrole-5-yl}-methyl-amino)-1H-pyrrolo[2,3-b]pyridin-5-carbonitrile]
Score Day 0 [1]: 0.00 ± 0.00
Score Day 13 (Lewis male mice; Day 13): 3.20 ± 0.37
Score Day 14 (Lewis male mice; Day 14): 4.00 ± 0.45
Score Day 18 (Lewis male mice; Day 18): 3.50 ± 0.50
Score Day 21 (Lewis male mice; Day 21): 2.83 ± 0.29
Score Day 25 (Lewis male mice; Day 25): 2.00 ± 0.27
Score Day 27 (Lewis male mice; Day 27): 1.20 ± 0.27
IC50 (hERG potassium channel): > 30 µM
